This note sets out measurements from US11396517B1, “Exo-aza spiro inhibitors of menin-MLL interaction” (Janssen Pharmaceutica NV, priority 2017, dated 2022).

In one assay the target is T1, menin (Homo sapiens, UniProt O00255, T541A).
T1 construct: Menin (a.a. 1-610-6×his tag)
T1 sequence (O00255 with tags, fused parts or gaps T541A): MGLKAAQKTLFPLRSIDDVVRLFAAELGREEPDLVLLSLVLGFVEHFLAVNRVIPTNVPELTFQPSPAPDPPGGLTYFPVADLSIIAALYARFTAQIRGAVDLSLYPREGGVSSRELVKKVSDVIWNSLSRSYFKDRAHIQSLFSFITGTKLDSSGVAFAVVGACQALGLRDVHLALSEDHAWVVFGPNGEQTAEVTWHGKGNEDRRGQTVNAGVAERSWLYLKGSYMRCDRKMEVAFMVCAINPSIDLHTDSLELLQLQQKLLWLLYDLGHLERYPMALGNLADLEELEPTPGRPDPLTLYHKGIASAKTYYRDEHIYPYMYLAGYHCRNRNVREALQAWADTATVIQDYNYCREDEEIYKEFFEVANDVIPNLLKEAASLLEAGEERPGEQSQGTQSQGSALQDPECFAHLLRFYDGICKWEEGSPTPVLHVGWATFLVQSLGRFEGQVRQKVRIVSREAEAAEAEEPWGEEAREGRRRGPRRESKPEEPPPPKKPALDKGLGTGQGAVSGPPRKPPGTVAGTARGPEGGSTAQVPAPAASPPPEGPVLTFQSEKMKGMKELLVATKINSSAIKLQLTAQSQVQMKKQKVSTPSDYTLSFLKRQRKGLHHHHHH
Put plainly: Menin/MLL homogenous time-resolved fluorescence (HTRF) assay. Particulars: location 1; read-out: (2) location 1 Menin HTRF assay (IC50 (nM)). It is filed as binding. Here is the method: 2) Menin/MLL Homogenous Time-Resolved Fluorescence (HTRF) Assay
To an untreated, white 384-well microtiter plate was added 40 nL 200× test compound in DMSO and 4 μL 2× terbium chelate-labeled menin (vide infra for preparation) in assay buffer (40 mM Tris HCl, pH 7.5, 50 mM NaCl, 1 mM DTT and 0.05% Pluronic F-127). After incubation of test compound and terbium chelate-labeled menin for 5 min at ambient temperature, 4 μL 2× FITC-MBM1 peptide (FITC-β-alanine-[…]-NH2 (SEQ ID NO: 23)) in assay buffer was added, the microtiter plate centrifuged at 1000 rpm for 1 min and the assay mixtures incubated for 15 min at ambient temperature. The relative amount of menin.FITC-MBM1 complex present in an assay mixture is determined by measuring the homogenous time-resolved fluorescence (HTRF) of the terbium/FITC donor/acceptor fluorphore pair using a BMG Pherastar plate reader (ex. 337 nm/terbium em. 490 nm/FITC em. 520 nm) at ambient temperature. The degree of fluorescence resonance energy transfer (the HTRF value) is expressed as the ratio of the fluorescence emission intensities of the FITC and terbium fluorophores (Fern 520 nm/Fem 490 nm). The final concentrations of reagents in the binding assay are […] terbium chelate-labeled menin (location 2), 75 nM FITC-MBM1 peptide and 0.5% DMSO in assay buffer. Dose-response titrations of test compounds are conducted using an 11 point, three-fold serial dilution scheme, starting typically at 25 μM (location 1) or starting typically at 10 μM (location 2).
Compound potencies were determined by first calculating % inhibition at each compound concentration according to equation 1: % inhibition=((HC−LC)−(HTRF^compound−LC))/(HC−LC))*100 (Eqn 1)
Where LC and HC are the HTRF values of the assay in the presence or absence of a saturating concentration of a compound that competes with FITC-MBM1 for binding to menin, and HTRF^compound is the measured HTRF value in the presence of the test compound. FTC and LC HTRF values represent an average of at least 16 replicates per plate.
Where Bottom and Top are the lower and upper asymptotes of the dose-response curve, respectively, IC50 is the concentration of compound that yields 50% inhibition of signal and h is the Hill coefficient.
Preparation of Terbium cryptate labeling of Menin: Menin (a.a. 1-610-6×his tag (“6×his” disclosed as SEQ ID NO: 3)) was labeled with terbium cryptate as follows. 2 mg of Menin was buffer exchanged into 1× phosphate buffered saline. 16 uM Menin was incubated with 4-fold molar excess NHS-terbium cryptate (Cisbio Bioassays, Bedford, Mass.) for 2 hours at room temperature. The labeled protein was purified away from free label by running the reaction over a Superdex 200 Increase 10/300 GL column at 0.75 ml/min. Peak fractions were collected, aliquoted and frozen at −80° C.
On the technique in general: In TR-FRET formats the signal depends on donor and acceptor labels being close together.
As usually defined, the IC50 is the concentration that gives 50% inhibition. As to `N#CCc1cccc(C(=O)NC2CC3(CCN(c4ncnc5sc(CC(F)(F)F)cc45)C3)C2)c1` (stereo not drawn) [Compound 8], the IC50 worked out at 1250 nM.

In the case of `CC(C)(C#N)c1cccc(C(=O)NC2CC3(CCN(c4ncnc5sc(CC(F)(F)F)cc45)C3)C2)c1` (stereo not drawn) [Compound 9], the IC50 worked out at 3810 nM.

On to `N#CCc1cccc(C(=O)NC2CCC3(C2)CN(c2ncnc4sc(CC(F)(F)F)cc24)C3)c1` (stereo not drawn) [Compound 18], for which the IC50 was found to be 3840 nM.

On to `CC(C)(C#N)c1cccc(C(=O)NC2CCC3(C2)CN(c2ncnc4sc(CC(F)(F)F)cc24)C3)c1` (stereo not drawn) [Compound 19], for which the IC50 was found to be 3630 nM.

For the compound `N#CCc1ccc(C(=O)NC2CCC3(C2)CN(c2ncnc4sc(CC(F)(F)F)cc24)C3)cc1` (stereo not drawn) [Compound 20], the IC50 worked out at 2020 nM.

Still in this assay, the particulars now being: location 2; read-out: (2) location 2 Menin HTRF assay (IC50 (nM)).
Take `O=c1[nH]c2ccc(N[C@H]3CCC4(C3)CN(c3ncnc5sc(CC(F)(F)F)cc35)C4)cc2[nH]1` (single isomer, unassigned) [Compound 300]: the half-inhibitory concentration (IC50) was found to be 128 nM.

For `FC(F)(F)Cc1cc2c(N3CC4(CC[C@@H](Nc5ccc(-c6cn[nH]c6)cc5)C4)C3)ncnc2s1` (single isomer, unassigned) [Compound 303], the IC50 worked out at 521 nM.

As to `FC(F)(F)Cc1cc2c(N3CCC4(CC(Nc5ccc6cc[nH]c6c5)C4)C3)ncnc2s1` (single isomer, unassigned) [Compound 312], the IC50 came to 136 nM.

Take `FC(F)(F)Cc1cc2c(N3CCC4(CC(Nc5ccc6cc[nH]c6c5)C4)C3)ncnc2s1` (single isomer, unassigned) [Compound 313]: the half-maximal inhibitory concentration (IC50) was found to be 55.2 nM.

Consider `O=c1[nH]c2ccc(NC3CC4(CCN(c5ncnc6sc(CC(F)(F)F)cc56)C4)C3)cc2o1` (single isomer, unassigned) [Compound 324], for which the IC50 stood at 85.9 nM.

`FC(F)(F)Cc1cc2c(N3CCC4(CC(Nc5ccc(-c6cn[nH]c6)cc5)C4)C3)ncnc2s1` (single isomer, unassigned) [Compound 328]: the IC50 is 206 nM.

`CC(=O)Nc1ccc(NC2CC3(CCN(c4ncnc5sc(CC(F)(F)F)cc45)C3)C2)cc1` (single isomer, unassigned) [Compound 332]: the IC50 was 330 nM.

Consider `CN1CCN(C(=O)c2ccc(NC3CC4(CCN(c5ncnc6sc(CC(F)(F)F)cc56)C4)C3)cc2)CC1` (single isomer, unassigned) [Compound 337], for which the IC50 is 2300 nM.

On to `CN1CCN(C(=O)c2ccc(NC3CC4(CCN(c5ncnc6sc(CC(F)(F)F)cc56)C4)C3)cc2)CC1` (single isomer, unassigned) [Compound 338], for which the IC50 worked out at 89.5 nM.

`Nc1nc(N2CCC3(CC(Nc4ccc5[nH]c(=O)[nH]c5c4)C3)C2)c2cc(CC(F)(F)F)sc2n1` (single isomer, unassigned) [Compound 383]: the concentration for half-maximal inhibition (IC50) turned out to be 70.8 nM.

Consider `N#CCc1ccc(NC2CCC3(C2)CN(c2nc(N)nc4sc(CC(F)(F)F)cc24)C3)cc1` (single isomer, unassigned) [Compound 388], for which the IC50 was 217 nM.

Regarding `N#CCc1ccc(NC2CCC3(C2)CN(c2nc(N)nc4sc(CC(F)(F)F)cc24)C3)cc1` (single isomer, unassigned) [Compound 389], the IC50 came out at 96 nM.

Consider `CNc1nc(N2CCC3(CC(Nc4ccc(CC#N)cc4)C3)C2)c2cc(CC(F)(F)F)sc2n1` (single isomer, unassigned) [Compound 391], for which the IC50 turned out to be 163 nM.

As for `CNc1nc(N2CCC3(CC(Nc4ccc(CC#N)cc4)C3)C2)c2cc(CC(F)(F)F)sc2n1` (single isomer, unassigned) [Compound 392], the 50% inhibitory concentration (IC50) came out at 16.8 nM.

`CNc1nc(N2CCC3(CC(Nc4ccc5[nH]c(=O)[nH]c5c4)C3)C2)c2cc(CC(F)(F)F)sc2n1` (single isomer, unassigned) [Compound 395]: the IC50 was determined as 113 nM.

Consider `COC[C@@H]1CN(C(=O)c2ccc(NC3CC4(CCN(c5ncnc6sc(CC(F)(F)F)cc56)C4)C3)cc2)CCO1` (single isomer, unassigned) [Compound 409], for which the IC50 came out at 1100 nM.

Regarding `O=C(c1ccc(NC2CC3(CCN(c4ncnc5sc(CC(F)(F)F)cc45)C3)C2)cc1)N1CC2(COC2)C1` (single isomer, unassigned) [Compound 414], the IC50 was 100 nM.

On to `FC(F)(F)Cc1cc2c(N3CC4(CC[C@@H](NC5(c6ccccc6)CC5)C4)C3)ncnc2s1` (stereo in doubt) [Compound 112], for which the IC50 was 313 nM.

With `FC(F)(F)Cc1cc2c(N3CC4(CC[C@H](NC5(c6ccccc6)CC5)C4)C3)ncnc2s1` (stereo in doubt) [Compound 113], the concentration for half-maximal inhibition (IC50) came out at 164 nM.

Consider `COc1nc(N2CC3(CC[C@@H](NCc4cccc(-c5cc[nH]n5)c4)C3)C2)c2cc(CC(F)(F)F)sc2n1` (stereo in doubt) [Compound 115], for which the half-maximal inhibitory concentration (IC50) is 160 nM.

For `N#CCc1ccc(N[C@@H]2CC[C@]3(CCN(c4ncnc5sc(CC(F)(F)F)cc45)C3)C2)cc1` (stereo in doubt) [Compound 146], the IC50 turned out to be 23.7 nM.

Consider `N#CCc1cccc(C(=O)NC2CC3(CCN(c4ncnc5sc(CC(F)(F)F)cc45)C3)C2)c1` (stereo not drawn) [Compound 8], for which the IC50 came to 1010 nM.

In the case of `CC(C)(C#N)c1cccc(C(=O)NC2CC3(CCN(c4ncnc5sc(CC(F)(F)F)cc45)C3)C2)c1` (stereo not drawn) [Compound 9], the IC50 was found to be 1220 nM.

As for `N#CCc1cccc(C(=O)NC2CCC3(C2)CN(c2ncnc4sc(CC(F)(F)F)cc24)C3)c1` (stereo not drawn) [Compound 18], the IC50 stood at 1620 nM.

For the compound `CC(C)(C#N)c1cccc(C(=O)NC2CCC3(C2)CN(c2ncnc4sc(CC(F)(F)F)cc24)C3)c1` (stereo not drawn) [Compound 19], the IC50 amounted to 3560 nM.

As to `N#CCc1ccc(C(=O)NC2CCC3(C2)CN(c2ncnc4sc(CC(F)(F)F)cc24)C3)cc1` (stereo not drawn) [Compound 20], the IC50 stood at 2790 nM.

For `O=S(=O)(NC1CC2(CCN(c3ncnc4sc(CC(F)(F)F)cc34)C2)C1)c1ccccc1` (stereo not drawn) [Compound 24], the IC50 stood at 419 nM.

For `O=C(NC1CCC2(C1)CN(c1ncnc3sc(CC(F)(F)F)cc13)C2)c1cccc(-c2cc[nH]n2)c1` (stereo not drawn) [Compound 30], the half-inhibitory concentration (IC50) is 3890 nM.

On to `O=C(NC1CC2(CCN(c3ncnc4sc(CC(F)(F)F)cc34)C2)C1)c1ccccc1` (stereo not drawn) [Compound 36], for which the IC50 was 7520 nM.

With `O=S(=O)(NC1CCC2(CCN(c3ncnc4sc(CC(F)(F)F)cc34)C2)C1)c1ccccc1` (stereo not drawn) [Compound 39], the IC50 turned out to be 1440 nM.

Turning to `Cn1cc(NC2CCC3(C2)CN(c2ncnc4sc(CC(F)(F)F)cc24)C3)cn1` (stereo not drawn) [Compound 43], the IC50 is 1750 nM.

With `O=C1CN(C(=O)c2ccc(NC3CC4(CCN(c5ncnc6sc(CC(F)(F)F)cc56)C4)C3)cc2)CCN1` (stereo not drawn) [Compound 104], the IC50 was 16.6 nM.

`N#CCc1cccc(NC2CCC3(C2)CN(c2ncnc4sc(CC(F)(F)F)cc24)C3)c1` (stereo not drawn) [Compound 114]: the IC50 was found to be 157 nM.

Turning to `COc1nc(N2CC3(CCC(NCc4ccc5[nH]c(=O)[nH]c5c4)C3)C2)c2cc(CC(F)(F)F)sc2n1` (stereo not drawn) [Compound 117], the IC50 turned out to be 111 nM.

Regarding `CNC(=O)c1ccc(NC2CCC3(C2)CN(c2nc(NC)nc4sc(CC(F)(F)F)cc24)C3)cc1` (stereo not drawn) [Compound 123], the IC50 came to 137 nM.

Consider `N#CCc1cccc(S(=O)(=O)NC2CCC3(CCN(c4ncnc5sc(CC(F)(F)F)cc45)C3)C2)c1` (stereo not drawn) [Compound 124], for which the IC50 worked out at 2530 nM.

On to `N#CCc1ccc(S(=O)(=O)NC2CCC3(CCN(c4ncnc5sc(CC(F)(F)F)cc45)C3)C2)cc1` (stereo not drawn) [Compound 125], for which the IC50 was found to be 5940 nM.

For `N#CCc1ccc(C(=O)NC2CCC3(CCN(c4ncnc5sc(CC(F)(F)F)cc45)C3)C2)cc1` (stereo not drawn) [Compound 126], the IC50 is above 10000 nM.

For the compound `N#CCc1cccc(C(=O)NC2CCC3(CCN(c4ncnc5sc(CC(F)(F)F)cc45)C3)C2)c1` (stereo not drawn) [Compound 127], the IC50 was above 10000 nM.

As for `O=C(NC1CCC2(CCN(c3ncnc4sc(CC(F)(F)F)cc34)C2)C1)c1ccccc1` (stereo not drawn) [Compound 128], the IC50 was above 10000 nM.
